In the test the target is T1, IRAK4 (Homo sapiens, UniProt Q9NWZ3).
T1 sequence (Q9NWZ3 1-460): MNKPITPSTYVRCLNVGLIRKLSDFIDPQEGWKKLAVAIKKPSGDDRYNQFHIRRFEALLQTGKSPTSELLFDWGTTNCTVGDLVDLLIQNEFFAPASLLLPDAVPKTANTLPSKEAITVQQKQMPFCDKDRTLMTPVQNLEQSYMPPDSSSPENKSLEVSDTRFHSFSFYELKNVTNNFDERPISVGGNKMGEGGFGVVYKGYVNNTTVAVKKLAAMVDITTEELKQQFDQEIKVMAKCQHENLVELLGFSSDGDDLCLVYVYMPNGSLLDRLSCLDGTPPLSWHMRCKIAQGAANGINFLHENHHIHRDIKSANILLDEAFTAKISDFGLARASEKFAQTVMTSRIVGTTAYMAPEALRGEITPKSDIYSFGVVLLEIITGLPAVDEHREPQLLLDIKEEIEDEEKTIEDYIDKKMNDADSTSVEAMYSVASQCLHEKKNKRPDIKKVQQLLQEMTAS
In words: Degradation of IRAK4 in THP1 cells, Western blot. Type of test: cell-based. The arrangement: Degradation of IRAK4 in THP1 by compound; host or cells: THP-1. The conditions noted are these: THP-1 cells, 24 hours of incubation; for DC50: IRAK4 protein by Western blot, read-out: DC50; for Dmax: maximum degradation rate. In a few lines: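 THP1 cells treated 24 h, lysed; lysates normalised by BCA, 40 μg protein per lane on 10% SDS-PAGE, anti-IRAK4 Western blot with chemiluminescence detection.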

Structures are written as SMILES. Where a name gives a salt, the structure may show the parent alone. Read-outs that look alike come from different tables or passages of the source.

`NC(=O)c1nn(-c2ccc(N3CCN(C4CCC5(CC4)CN(c4ccc(N6CCC(=O)NC6=O)cc4)C5)CC3)cc2)cc1NC(=O)c1cccc(C(F)(F)F)n1` [Compound A391, N-(3-Carbamoyl-1-(4-(4-(2-(4-(2,4-dioxotetrahydropyrimidin-1(2H)-yl)phenyl)-2-azaspiro[3.5]nonan-7-yl)piperazin-1-yl)phenyl)-1H-pyrazol-4-yl)-6-(trifluoromethyl)picolinamide]: the DC50 is under 0.1 µM. The Dmax (read-out: Dmax) was over 60%.

Regarding `NC(=O)c1nn(-c2ccc(N3CCN(CC4CCN(c5ccc(OC6CCC(=O)NC6=O)cn5)CC4)CC3)cc2)cc1NC(=O)c1cccc(C(F)(F)F)n1` (stereo not drawn) [Compound A377, N-(3-Carbamoyl-1-(4-(4-((1-(5-((2,6-dioxopiperidin-3-yl)oxy)pyridin-2-yl)piperidin-4-yl)methyl)piperazin-1-yl)phenyl)-1H-pyrazol-4-yl)-6-(trifluoromethyl)picolinamide], the DC50 was under 0.1 µM. Besides, under “read-out: Dmax”, the Dmax is over 60%.

Consider `COc1ccc(C(=O)N2CCC(CN3CCN(c4ccc(-n5cc(NC(=O)c6cccc(-c7ccn[nH]7)n6)c(S(N)(=O)=O)n5)cc4)CC3)C2)cc1N1CCC(=O)NC1=O` (stereo not drawn) [Compound A329, N-(1-(4-(4-((1-(3-(2,4-dioxotetrahydropyrimidin-1(2H)-yl)-4-methoxybenzoyl)pyrrolidin-3-yl)methyl)piperazin-1-yl)phenyl)-3-sulfamoyl-1H-pyrazol-4-yl)-6-(1H-pyrazol-5-yl)picolinamide trifluoroacetate], for which the DC50 is under 0.1 µM. Also, the Dmax (read-out: Dmax) was over 60%.

`NC(=O)c1nn(-c2ccc(N3CCN(C(=O)C4CCN(c5ccc(OC6CCC(=O)NC6=O)cn5)CC4)CC3)cc2)cc1NC(=O)c1cccc(C(F)(F)F)n1` (stereo not drawn) [Compound A415, N-(3-Carbamoyl-1-(4-(4-(1-(5-((2,6-dioxopiperidin-3-yl)oxy)pyridin-2-yl)piperidine-4-carbonyl)piperazin-1-yl)phenyl)-1H-pyrazol-4-yl)-6-(trifluoromethyl)picolinamide]: the DC50 was under 0.1 µM. For the same compound, the Dmax (read-out: Dmax) is over 60%.

Consider `Cn1c(=O)n(C2CCC(=O)NC2=O)c2cccc(N3CCC(CN4CCN(c5ccc(-n6cc(NC(=O)c7cccc(C(F)(F)F)n7)c(C(N)=O)n6)cc5)CC4)C3)c21` (stereo not drawn) [Compound A305, N-(3-carbamoyl-1-(4-(4-((1-(1-(2,6-dioxopiperidin-3-yl)-3-methyl-2-oxo-2,3-dihydro-1H-benzo[d]imidazol-4-yl)pyrrolidin-3-yl)methyl)piperazin-1-yl)phenyl)-1H-pyrazol-4-yl)-6-(trifluoromethyl)picolinamide], for which the DC50 was in the range of 0.1 to 1 µM. In addition, for the setting “read-out: Dmax”, the Dmax lay within 40 to 60%.

As to `Cn1c(=O)n(C2CCC(=O)NC2=O)c2cccc(C(=O)N3CCC4(CCN(Cc5ccc(-n6cc(NC(=O)c7cccc(-c8ccn[nH]8)n7)c(S(N)(=O)=O)n6)cc5)C4)CC3)c21` (stereo not drawn) [Compound A357, N-(1-(4-((8-(1-(2,6-Dioxopiperidin-3-yl)-3-methyl-2-oxo-2,3-dihydro-1H-benzo[d]imidazole-4-carbonyl)-2,8-diazaspiro[4.5]decan-2-yl)methyl)phenyl)-3-sulfamoyl-1H-pyrazol-4-yl)-6-(1H-pyrazol-5-yl)picolinamide], the DC50 is under 0.1 µM. For the same compound, the Dmax (read-out: Dmax) was over 60%.

`COc1ccc(C(=O)N2CCC(CN3CCN(C(=O)c4ccc(-n5cc(NC(=O)c6cccc(C(F)(F)F)n6)c(C(N)=O)n5)cc4)CC3)C2)cc1N1CCC(=O)NC1=O` (stereo not drawn) [Compound A313, N-(3-carbamoyl-1-(4-((1-(3-(2,4-dioxotetrahydropyrimidin-1(2H)yl)-4-methoxybenzoyl)pyrrolidin-3-yl)methyl)piperazine-1-carbonyl)phenyl)-1H-pyrazol-4-yl)-6-(trifluoromethyl)picolinamide trifluoroacetate]: the DC50 lay in the range of 0.1 to 1 µM. Further, the Dmax (read-out: Dmax) is over 60%.

Take `NC(=O)c1nn(-c2ccc(N3CCN(C4CCN(c5ccc(NC6CCC(=O)NC6=O)cn5)CC4)CC3)cc2)cc1NC(=O)c1cccc(C(F)(F)F)n1` (stereo not drawn) [Compound A432, N-(3-Carbamoyl-1-(4-(4-(1-(5-((2,6-Dioxopiperidin-3-yl)amino)pyridin-2-yl)piperidin-4-yl)piperazin-1-yl)phenyl)-1H-pyrazol-4-yl)-6-(trifluoromethyl)picolinamide]: the DC50 lay within 0.1 to 1 µM. Also, where the note is “read-out: Dmax”, the Dmax is 40 to 60%.

Regarding `Cn1c(=O)n(C2CCC(=O)NC2=O)c2cccc(N3CCC4(CC3)CC(NCc3ccc(-n5cc(NC(=O)c6cccc(-c7ccn[nH]7)n6)c(S(N)(=O)=O)n5)cc3)C4)c21` (stereo not drawn) [Compound A322, N-(1-(4-(((7-(1-(2,6-dioxopiperidin-3-yl)-3-methyl-2-oxo-2,3-dihydro-1H-benzo[d]imidazol-4-yl)-7-azaspiro[3.5]nonan-2-yl)amino)methyl)phenyl)-3-sulfamoyl-1H-pyrazol-4-yl)-6-(1H-pyrazol-5-yl)picolinamide], the DC50 is under 0.1 µM. For the same compound, the Dmax (read-out: Dmax) was over 60%.

With `Cn1c(=O)n(C2CCC(=O)NC2=O)c2cccc(NCC3CC4(C3)CN(C(=O)c3ccc(-n5cc(NC(=O)c6cccc(-c7ccn[nH]7)n6)c(S(N)(=O)=O)n5)cc3)C4)c21` (stereo not drawn) [Compound A354, N-(1-(4-(6-(((1-(2,6-Dioxopiperidin-3-yl)-3-methyl-2-oxo-2,3-dihydro-1H-benzo[d]imidazol-4-yl)amino)methyl)-2-azaspiro[3.3]heptane-2-carbonyl)phenyl)-3-sulfamoyl-1H-pyrazol-4-yl)-6-(1H-pyrazol-5-yl)picolinamide], the DC50 is under 0.1 µM. Further, the Dmax (read-out: Dmax) was over 60%.

Turning to `CC(C)(O)c1nn(-c2ccc(N3CCN(C4CCN(c5ccc(C(=O)NC6CCC(=O)NC6=O)c(F)c5)CC4)CC3)cc2)cc1NC(=O)c1cccc(C(F)(F)F)n1` (stereo not drawn) [Compound A442, N-(1-(4-(4-(1-(4-((2,6-dioxopiperidin-3-yl)carbamoyl)-3-fluorophenyl)piperidin-4-yl)piperazin-1-yl)phenyl)-3-(2-hydroxypropan-2-yl)-1H-pyrazol-4-yl)-6-(trifluoromethyl)picolinamide], the DC50 is under 0.1 µM. Moreover, under “read-out: Dmax”, the Dmax was over 60%.

As for `CN(Cc1ccc(-n2cc(NC(=O)c3cccc(C(F)(F)F)n3)c(C(N)=O)n2)cc1)C1CC2(CCN(c3cccc4c3n(C)c(=O)n4C3CCC(=O)NC3)CC2)C1` (stereo not drawn) [Compound A315], the DC50 was in the range of 0.1 to 1 µM and the Dmax result was “A (A represents Dmax > 60%)”.

On to `Cn1c(=O)n(C2CCC(=O)NC2=O)c2cccc(N3CCN(C(=O)C4CCN(Cc5ccc(-n6cc(NC(=O)c7cccc(-c8ccn[nH]8)n7)c(S(N)(=O)=O)n6)cc5)CC4)CC3)c21` (stereo not drawn) [Compound A332, N-(1-(4-((4-(4-(1-(2,6-Dioxopiperidin-3-yl)-3-methyl-2-oxo-2,3-dihydro-1H-benzo[d]imidazol-4-yl)piperazine-1-carbonyl)piperidin-1-yl)methyl)phenyl)-3-sulfamoyl-1H-pyrazol-4-yl)-6-(1H-pyrazol-5-yl)picolinamide], for which the 50% degradation concentration (DC50) was under 0.1 µM. Besides, the Dmax (read-out: Dmax) is over 60%.

In the case of `NC(=O)c1nn(-c2ccc(N3CCN(C(=O)N4CCC(Cc5ccc(N6CCC(=O)NC6=O)cc5)CC4)CC3)cc2)cc1NC(=O)c1cccc(C(F)(F)F)n1` [Compound A448], the DC50 fell in the range of 0.1 to 1 µM. In addition, where the note is “read-out: Dmax”, the Dmax lay within 40 to 60%.

With `N#Cc1ccc(C(=O)Nc2cn(-c3ccc(N4CCN(CC5CCN(c6ccc(NC7CCC(=O)NC7=O)cc6F)CC5)CC4)cc3)nc2C(N)=O)nc1` (stereo not drawn) [Compound A353, N-(3-Carbamoyl-1-(4-(4-((1-(4-((2,6-dioxopiperidin-3-yl)amino)-2-fluorophenyl)piperidin-4-yl)methyl)piperazin-1-yl)phenyl)-1H-pyrazol-4-yl)-5-cyanopicolinamide], the DC50 was over 1 µM. Further, the Dmax (read-out: Dmax) was under 40%.

With `Cn1c(=O)n(C2CCC(=O)NC2=O)c2cccc(N3CCC(CN4CCN(C5CCC(n6cc(NC(=O)c7cccc(C(F)(F)F)n7)c(C(N)=O)n6)CC5)CC4)CC3)c21` (stereo not drawn) [Compound A380], the DC50 is under 0.1 µM. Also, the Dmax (read-out: Dmax) was over 60%.

On to `COc1cc(NC2CCC(=O)NC2=O)ccc1N1CCC(CN2CCN(c3ccc(-n4cc(NC(=O)c5cccc(C(F)(F)F)n5)c(C(N)=O)n4)cc3)CC2)CC1` (stereo not drawn) [Compound A423, N-(3-Carbamoyl-1-(4-(4-((1-(4-((2,6-dioxopiperidin-3-yl)amino)-2-methoxyphenyl)piperidin-4-yl)methyl)piperazin-1-yl)phenyl)-1H-pyrazol-4-yl)-6-(trifluoromethyl)picolinamide], for which the DC50 fell in the range of 0.1 to 1 µM. Also, the Dmax (read-out: Dmax) is over 60%.

Consider `CN(c1ccc(N2CCC(CN3CCN(c4ccc(-n5cc(NC(=O)c6cccc(C(F)(F)F)n6)c(C(N)=O)n5)cc4)CC3)CC2)c(F)c1)C1CCC(=O)NC1=O` (stereo not drawn) [Compound A447, N-(3-Carbamoyl-1-(4-(4-((1-(4-((2,6-Dioxopiperidin-3-yl)(methyl)amino)-2-fluorophenyl)piperidin-4-yl)methyl)piperazin-1-yl)phenyl)-1H-pyrazol-4-yl)-6-(trifluoromethyl)picolinamide formate], for which the DC50 is under 0.1 µM. The Dmax (read-out: Dmax) is over 60%.

As a reminder, the DC50 is the midpoint of the concentration-degradation curve. What is called Dmax is the greatest extent of degradation seen.

The values above are taken from patent EP4763839A1 (Pamplona Therapeutics (Shenzhen) Co., Ltd., priority 2023, dated 2025).
